From publication PMC6527222 (PLoS ONE, 2019)
Read-outs that look alike come from different tables or passages of the source.

What was measured:
[1] = test system: hairless mice (UV-induced skin thickening); test: Eight dose UV exposure, bi-folded epidermal thickness in hairless wild type and β2-AR knockout mice; type: in vivo, mouse; details: 5 μM in 200 μL acetone topically every other day, 200 mJ/cm^2 UV, eight irradiations
Experimental: The Western University of Health Sciences’ Institutional Animal Care and Use Committee (WesternU IACUC) approved all animal studies prior to initiating any experiments. The animal studies were carried out under WesternU IACUC recommendations and guidelines, which follow NIH guidelines. Mice had access to water and food ad libitum and housed on a 12-hour light/dark cycle with 35% humidity. Homozygous β1-AR and β2-AR null mice (Adrb1^tm1Bkk Adrb2^tm1Bkk/J Stock Number 003810) were purchased from Jackson Laboratory (Bar Harbor, ME); the double knockout mice were characterized previously. The double knockout mice were bred with C57BL/6J from Jackson Lab to generate a heterozygous F1 generation. The F1 generation was bred together to generate the F2 generation of which 1/16th of the offspring were a β2-AR knockout mouse. SKH-1 mice purchased from Charles River (Wilmington, MA) were bred with the β2-AR knockout mice generating a second heterozygous F1 generation. The F1 generation was bred together to generate the F2 generation of which 1/16th of the offspring were a hairless β2-AR knockout mouse. The F2 generation was backcrossed with a new batch of SKH-1 from Charles River to generate mice more efficiently. The mice used in this study are 75% SKH-1 and 25% mixed background. Following experimentation, and to cull the unused mice in a colony, mice were euthanized via exposure to 32% Isoflurane followed by cervical dislocation to ensure euthanization prior to disposal.
The first two weeks were pretreatment and the second two weeks were during the UV irradiation procedure, but drugs were applied the day after UV exposure to avoid sunscreen effects. All groups involved with UV were irradiated with 200 mJ/cm^2 dose of UV every other day for a total of eight irradiations. Bi-folded epidermal thickness was measured using a digital caliper before drug treatment on non-radiation days. Three skin thickness measurements were taken along the left, middle, and right dorsal epidermal layer, and the mean thickness was recorded for each mouse.

[2] = test system: JB6 P+ cells; test: SRB cytotoxicity assay; type: cell-based, mouse; details: for SRB Assay Log IΔ2*PSD: 72 hr, NT = no toxicity at any concentration tested; for Toxicity label: Toxic = no 10-fold difference between IΔ2*PSD from soft agar and SRB assays
Experimental: 96-well plates were seeded with 3x10^3 JB6 P+ cells per well and allowed to attach overnight. […] Cell viability was determined using Sulforhodamine B (SRB) assay from Sigma-Aldrich according to the manufacturer’s protocol. Cellular protein content was measured using a Bio-Tek μQuant plate reader with KCJunior software.
Concentration-response curves were normalized so that the EGF positive control on each 96-well plate was set to 100% and the control wells on each plate were set to 0%. Toxicity assays (SRB and MTS) were normalized so that the control on each plate represented 100% viability. Normalization allowed for comparison of data over a range of JB6 P+ cell cultures, passages, and experimental time for the shRNA studies, as well as control for variation in the EGF response, and importantly allowed for a direct comparison to all concentration-response experiments including the toxicity assays. […] All group sizes were determined via previous studies to provide statistically meaningful data. In the soft agar assays, key results were repeated with different JB6 P+ cells to confirm the results. Similarly, the shRNA studies were conducted with three independent concentration-response curves with different JB6 P+ cell stocks. […] For two sample comparisons a t-test was utilized, and when comparing multiple samples a One-, Two-, or Three-Factor ANOVA followed by Tukey-Kramer post hoc test was utilized depending on the data. For all tests, statistical difference was donated when p < 0.05.
The IΔ2*PSD is expressed in x-axis units (log [M]) as is an IC50 and it represents the first concentration where it is expected to observe a statistical decrease in the measured signal.
Using the formula provided by GraphPad Prism or a straight line for the point-to-point graphs, the X-axis value for point Y was determined. The error is ascribed to this measurement via adding and subtracting the pooled standard deviation (PSD) to/from point Y generating point Y ± PSD. The two new points were then transformed to the X-axis units as was done for point Y creating an asymmetric error in sigmoidal plots. When the error was asymmetric, the larger error value was chosen to err on the conservative side. See S1 Fig for a pictoral explination of the method. The data is presented as IΔ2*PSD ± error.

[3] = test system: β2-AR; design: method as in as printed in each cell (43-46, 48-54, 56-58); details: as described in the references; ref (43-46, 48-54, 56-58); cited from earlier work
[4] = test system: JB6 P+ cells; test: Anchorage-independent growth assay in soft agar (EGF-induced JB6 P+ colony formation); type: cell-based, mouse; details: Mus musculus; for IC50 / minimal effective concentration: 10 ng/mL EGF; for Emax: efficacy of inhibition of colony formation, reported if non-toxic; for minimal effective concentration: first concentration with expected statistical decrease, read-out: Soft Agar Assay Log IΔ2*PSD (converted)
Experimental: Ten ng/mL EGF was used to promote the anchorage-independent growth of JB6 cells. […] Plates were incubated at 37°C, 5% CO2 for 14 days. Colonies with greater than ten cells were counted manually under a microscope. […] Normalization allowed for comparison of data over a range of JB6 P+ cell cultures, passages, and experimental time for the shRNA studies, as well as control for variation in the EGF response, and importantly allowed for a direct comparison to all concentration-response experiments including the toxicity assays. […] All group sizes were determined via previous studies to provide statistically meaningful data. In the soft agar assays, key results were repeated with different JB6 P+ cells to confirm the results. Similarly, the shRNA studies were conducted with three independent concentration-response curves with different JB6 P+ cell stocks. […] For two sample comparisons a t-test was utilized, and when comparing multiple samples a One-, Two-, or Three-Factor ANOVA followed by Tukey-Kramer post hoc test was utilized depending on the data. For all tests, statistical difference was donated when p < 0.05. […] The I[…]*PSD is expressed in x-axis units (log [M]) as is an IC50 and it represents the first concentration where it is expected to observe a statistical decrease in the measured signal. […] Using the formula provided by GraphPad Prism or a straight line for the point-to-point graphs, the X-axis value for point Y was determined. The error is ascribed to this measurement via adding and subtracting the pooled standard deviation (PSD) to/from point Y generating point Y ± PSD. The two new points were then transformed to the X-axis units as was done for point Y creating an asymmetric error in sigmoidal plots. When the error was asymmetric, the larger error value was chosen to err on the conservative side. See S1 Fig for a pictoral explination of the method. The data is presented as I[…]*PSD ± error.

[5] = test system: JB6 P+ cells; details: cited from earlier work
[6] = 336 h, 14 days, negative log value, read-out: Soft Agar Assay Log IC50 (converted)

| Structure (SMILES) | SRB Assay Log IΔ2*PSD [2] | Pharmacological property at β2-AR [3] | IC50 [4, 6] | Emax [4] | Toxicity label [2] | minimal effective concentration ([4]; 336 h, 14 days) | also measured |
| --- | --- | --- | --- | --- | --- | --- | --- |
| Oc1cccc2[nH]c3ccccc3c12 [4-OHC, 4-Hydroxycarbazole] |  |  |  |  |  |  | effect on UV-induced skin thickening, words ([1]; wild type mice): little effect in wild type mice; effect on UV-induced skin thickening, words ([1]; β2-AR knockout mice): no effect in knockout mice |
| C=CCc1ccccc1OCC(O)CNC(C)C (centres unmarked) [Alprenolol] | -4.95 ± 0.06 log [M] | Biased agonist/ activates ERK [43] | 427 nM | 93.8 ± 2.88% |  |  |  |
| COCCc1ccc(OCC(O)CNC(C)C)cc1 (centres unmarked) [Metoprolol] | -4.52 ± 0.20 log [M] | Inverse agonist for cAMP [51] |  |  | Toxic | 24.5 µM |  |
| CC(C)NCC(O)COc1ccc(CC(N)=O)cc1 (centres unmarked) [Atenolol] |  | Inverse agonist for cAMP [50] |  | 47.9 ± 7.81% |  |  | Soft Agar Assay Log IC50 ([5]; 10 ng/mL EGF, negative log value): -5.04 ± 0.27 [19] log [M]; effect on EGF-mediated transformation of JB6 P+ cells, words ([5]; previous data): less potent and displayed partial efficacy; IC50 ([5]; previously published atenolol, read-out: IC50, inhibition of EGF-mediated transformation): 9190 nM |
| CCCC(=O)Nc1ccc(OCC(O)CNC(C)C)c(C(C)=O)c1 (centres unmarked) [Acebutolol] | -3.39 ± 0.70 log [M] | Partial agonist [56] |  |  | Toxic | 49 µM |  |
| CC(C)NCC(O)c1ccc2ccccc2c1 (centres unmarked) [Pronethalol] | -4.86 ± 0.23 log [M] | Inverse agonist for cAMP [48] | 2510 nM | 100% |  |  | IC50 ([4]; soft agar, read-out: IC50, inhibition of EGF-mediated transformation): 2530 nM |
| Cc1ccc(OCC(O)C(C)NC(C)C)c2c1CCC2 (centres unmarked) [ICI 118,551] | -3.59 ± 0.50 log [M] | Inverse agonist for cAMP that recruits ±-arr [29, 49] | 4470 nM |  | Toxic | 3.39 µM |  |
| CC(CCc1ccccc1)NCC(O)c1ccc(O)c(C(N)=O)c1 (centres unmarked) [Labetalol] |  | Partial agonist for cAMP and full agonist for ERK [44, 45] | 501 nM | 90.3 ± 8.48% |  |  |  |
| CC(C)NCC(O)COc1cccc2[nH]c3ccccc3c12 (centres unmarked) [Carazolol] | -5.00 ± 0.14 log [M] |  |  |  | Toxic | 7.41 µM |  |
